These results are taken from patent publication US20120258944A1, “ANTIOXIDANTS FOR USE IN THERAPY” (priority 2009, published 2012).

The subject of the test is human Neutrophils and human PBMCs. Kind of test: Intracellular ROS, luminol luminescence with SOD and catalase, PMA or fMLF stimulated cells. It is filed as cell-based. As to conditions: PMA or fMLF 30 ng/ml; compounds 120, 60, 30 microM; FIG. 5-8. Here is the method:
Validation was performed by stimulating cells with PMA and fMLF. When treated with the antioxidants, altered level of ROS production from the cells was measured using luminometry. Both intracellular and extracellular effect on ROS on the cells was analyzed using isoluminol (extracellular) and luminol (intracellular when co-administered with SOD and catalase) (Dahlgren et al. “Respiratory burst in human neutrophils”, Journal of Immunological Methods 232 1999; 3-14).
The luminol reagent buffer is made of HBSS buffer (with Ca^2+), luminol and SOD/Catalase.
1) Add 25 microL of antioxidants to assay plate to get proper concentrations in a total reaction volume of 100 micro-L. 2) Add 25 microL of PMA (120 ng/ml) and fMLF (120 ng/ml) to assay plate to get concentration of 30 ng/ml in a total reaction volume of 100 microL. 3) Add 50 microL of cell suspension (2 million cells/ml) to each well. Immediately after addition of cell suspension initiate luminescence measurement; the reaction starts at once when the cells are added to the assay plate. Measurement points are taken at 1-minute intervals for 25 minutes. Data is presented as AUC (Area Under Curve) by a summary of all collected measurements for each well.
FIG. 5: Intracellular ROS analyzed by Luminol (intracellular ROS) induced luminescence in human Neutrophils. ROS induced with PMA (30 ng/ml) with 200, 100 or 0 microM NAC. Concentrations of compounds 120, 60, 30 and 0 microM final concentrations.
FIG. 6: Intracellular ROS analyzed by Luminol (intracellular ROS) induced luminescence in human Neutrophils. ROS induced with fMLF (30 ng/ml) with 200, 100 or 0 microM NAC. Concentrations of compounds 120, 60, 30 and 0 microM final concentrations.
FIG. 7: Intracellular ROS analyzed by Luminol (intracellular ROS) induced luminescence in human PBMCs. ROS induced with PMA (30 ng/ml) with 200, 100 or 0 microM NAC. Concentrations of compounds 120, 60, 30 and 0 microM final concentrations.
FIG. 8: Intracellular ROS analyzed by Luminol (intracellular ROS) induced luminescence in human PBMCs. […]

Consider `CC1Cc2cc(O)ccc2[Se]1` (stereo not shown) [Compound 1], for which the “antioxidative effect on intracellular ROS” value was “strong antioxidative effect”.
